Data set [1] has as its target T1, recombinant HIV integrase (Human immunodeficiency virus type 1 group M subtype B, UniProt P04585).
T1 construct: recombinant HIV integrase
The data set is described as follows: HIV integrase inhibition assay (microtiter plate, biotin donor DNA / digoxigenin target DNA, colorimetric). Type of data set: biochemical. As to conditions: total inhibitory effect (3′ process reaction and strand transfer reaction), initial concentration 100 μg/mL, class symbol; for inhibition at 100 µg/mL: read-out: IC50 (μg/mL). The source says:
The target compounds 8, 9, 12, 14 were screened against purified HIV IN to determine any potential inhibitory activity. Thus, a synthesized 30 oligonucleotide and a 20 oligonucleotide were used as donor DNA and target DNA, respectively, which were purchased from Shanghai Sangon Biological Engineering Technology & Services Co. Ltd. The donor DNA was biotinylated at the 5′ end (5′ bio-DNA) and immobilized on streptavidin-coated 96-well microtiter plates. To the donor DNA streptavidin-coated 96-well microtiter plate were added test sample, 3' digoxygenin-labeled target DNA (3' dig-DNA) and recombinant HIV integrase and subjected to incubation in optimized condition.
The plate was further washed with phosphate-buffered saline (PBS) containing 0.1% Tween®-20 and anti-digoxigenin-peroxidase (POD, 100 µL) was added to each well. After incubation at 37°C for 60 min, the plate was washed with PBS containing 0.1% Tween®-20. The digoxygenin-labeled products were visualized by adding a POD substrate, tetramethylbenzidine (TMB). The colorimetric reaction was stopped by addition of 0.5 mol/L H2SO4 (100 µL), and the absorbance was measured at 450 nm on a microplate reader. The total inhibitory effect (including inhibiting 3′ process reaction and strand transfer reaction) were obtained by comparing the absorbance of drug group with control group (without test compound).

Data set [2] is described as follows: Mg2+ binding by UV-Vis titration in CH3CN. Type of data set: physicochemical. The procedure:
Inspirited by this assumption, preliminary ion binding experiments were also carried out by UV-Vis spectroscopy, using compound 14a as an example. […] As the Mg^2+ concentration (as perchlorate salt) increased, the absorption intensity of the peak at 414 nm first decreased and then the wavelength shifted blue to around 402 nm. […] However, the Mg^2+ induced a blue shift of the absorption curve of compound 14a. Similar behaviors were also observed for other divalent metals, including Mn^2+, Co^2+, Cu^2+, Ca^2+ and Ni^2+ (not shown in Figure 3).
Figure 2 Changes of UV-vis spectra with 14a in CH3CN on addition of 0-16×10^-6 mol·L^-1 of [Mg^2+] at 25 °C. Conditions: [Mg^2+] =2 × 10^-3 M. [14a] = 2 × 10^-5 MBlack: 0×10^-6 mol·L^-1, blue: 2×10^-6 mol·L^-1, red: 4×10^-6 mol·L^-1, navy: 6×10^-6 mol·L^-1, brown: 8×10^-6 mol·L^-1, green: 10×10^-6 mol·L^-1, dark cyan: 12×10^-6 mol·L^-1, brass: 16×10^-6 mol.L^-1.
Figure 3 UV-Vis absorption spectra of free 14a and 14a in the presence of K^+, Na^+ or Mg^2+ ion in CH3CN solution. Conditions: [14a] = 2 × 10^-5 M; [Mg^2+] = [K^+] = [Na^+] = 2×10^-3 M; Black: 14a, blue: Na^+ complex, red: K^+ complex, navy: Mg^2+ complex.

Data set [3] is described as follows: Solubility in water (qualitative remark). Type of data set: physicochemical.

In the case of `O=C(O)c1cc(-c2nc3ccccc3s2)c2ccccn2c1=O` [compound 12, 1-benzothiazol-2-yl-4-oxo-4H-quinolizine-3-carboxylic acid], the melting point (usually the temperature, or range, at which the solid turns liquid) was more than 300 °C. Also, the inhibition at 100 µg/mL in data set [1] was less than 50%.
In the same order, the values of `COc1cc(C(=O)Nc2cc(C(=O)O)c(=O)n3ccccc23)cc(OC)c1OC` [9a, 1-(3,4,5-Trimethoxyphenylcarbonylamino)-4-oxo-4H-quinolizine-3-carboxylic acid] are 280 to 282 °C and less than 50%.
The corresponding values for `O=C(O)c1cc(NS(=O)(=O)c2ccc(Cl)cc2)c2ccccn2c1=O` [8c, 1-p-Chlorophenylsulfonamido-4-oxo-4H-quinolizine-3-carboxylic acid] are more than 300 °C and less than 50%.
In the same order, the values of `O=C(O)c1cc(-c2nc3cc(Cl)ccc3[nH]2)c2ccccn2c1=O` [14b, 1-(5(6)-Chloro-1H-benzimidazol-2-yl)-4-oxo-4H-quinolizine-3-carboxylic acid] are more than 300 °C and less than 50%.
`O=C(O)c1cc(NS(=O)(=O)c2ccc([N+](=O)[O-])cc2)c2ccccn2c1=O` [8e, 1-p-Nitrophenylsulfonamido-4-oxo-4H-quinolizine-3-carboxylic acid] came in with a melting point of more than 300 °C. Moreover, in data set [1], the inhibition at 100 µg/mL was less than 50%.
For the compound `COc1ccc(S(=O)(=O)Nc2cc(C(=O)O)c(=O)n3ccccc23)cc1` [8d, 1-p-Methoxyphenylsulfonamido-4-oxo-4H-quinolizine-3-carboxylic acid], the melting point is more than 300 °C. Also, the inhibition at 100 µg/mL in data set [1] is less than 50%.
With `O=C(O)c1cc(-c2nc3ccccc3[nH]2)c2ccccn2c1=O` [14a, 1-(1H-Benzimidazol-2-yl)-4-oxo-4H-quinolizine-3-carboxylic acid], the melting point is more than 300 °C. Also, in data set [1], the inhibition at 100 µg/mL is less than 50%. In addition, the “change of UV-Vis absorption in the presence of Na+ or K+” value in data set [2] (100-fold equivalent amount of Na+ or K+) is “no obvious change”. In addition, in data set [2] ([14a] = 2 × 10^-5 M), the “change of UV-Vis absorption curve upon addition of Mg2+” value was “two-step shift of the absorption curve”. Further, the solubility in water entry in data set [3] is on record as “low solubility”.
Regarding “1-(3,4-Dimethoxystyrylcarboxylamino)-4-oxo-4H-quinolizine-3-carboxylic acid [9b]”, the “IC50 (μg/mL)” value in data set [1] was “-^2 (“-” indicates that the HIV-IN inhibitory effect was less than 50% at the initial concentration)”.
For `O=C(O)c1cc(NS(=O)(=O)c2ccccc2)c2ccccn2c1=O` [8a, 1-Phenylsulfonamido-4-oxo-4H-quinolizine-3-carboxylic acid], the melting point was 245 to 247 °C. Besides, in data set [1], the inhibition at 100 µg/mL is less than 50%.
On to `Cc1ccc(S(=O)(=O)Nc2cc(C(=O)O)c(=O)n3ccccc23)cc1` [8b, 1-p-Methylphenylsulfonamido-4-oxo-4H-quinolizine-3-carboxylic acid], for which the melting point was more than 300 °C. The inhibition at 100 µg/mL in data set [1] was less than 50%.
`COc1ccc2[nH]c(-c3cc(C(=O)O)c(=O)n4ccccc34)nc2c1` [14c, 1-(5(6)-Methoxy-1H-benzimidazol-2-yl)-4-oxo-4H-quinolizine-3-carboxylic acid]: the melting point was more than 300 °C. For the same compound, the inhibition at 100 µg/mL in data set [1] was less than 50%.
